Results published in ChEMBL document CHEMBL3882388, “Pharmaceutical Compositions Comprising Beta-Lactam Antibiotic, Sulbactam and Beta-Lactamase Inhibitor” (2014).
Converted amounts (≈) assume the structure as drawn.

Legend:
[1] = target: Beta-lactamase (Acinetobacter baumannii) (UniProt Q8RLA6); conditions: S-8
[2] = target: Beta-lactamase (Acinetobacter baumannii) (UniProt Q8RLA6); conditions: S-4
[3] = target: Beta-lactamase (Acinetobacter baumannii) (UniProt Q8RLA6); conditions: NCTC 13305
[4] = target: Beta-lactamase (Acinetobacter baumannii) (UniProt Q8RLA6); conditions: NCTC 13305; remark: listed apart in the source
[5] = target: Beta-lactamase (Acinetobacter baumannii) (UniProt Q8RLA6); conditions: S-15
[6] = target: Beta-lactamase (Acinetobacter baumannii) (UniProt Q8RLA6); conditions: NCTC 13301
[7] = target: Beta-lactamase (Acinetobacter baumannii) (UniProt Q8RLA6); conditions: NCTC 13304
[8] = target: Beta-lactamase (Acinetobacter baumannii) (UniProt Q8RLA6); conditions: S-10
[9] = target: Beta-lactamase (Acinetobacter baumannii) (UniProt Q8RLA6); conditions: S-15; remark: listed apart in the source
[10] = target: Beta-lactamase (Acinetobacter baumannii) (UniProt Q8RLA6); conditions: S-15; remark: listed apart in the source
[11] = target: Beta-lactamase (Acinetobacter baumannii) (UniProt Q8RLA6); conditions: NCTC 13305; remark: listed apart in the source
[12] = target: Beta-lactamase (Acinetobacter baumannii) (UniProt Q8RLA6); conditions: S-10; remark: listed apart in the source
[13] = tested on: Acinetobacter baumannii; experiment: Antibacterial activity against extended-spectrum b-lactamase producing Acinetobacter baumannii S-15 incubated for 16 to 20 hrs by CLSI method; assay type: functional
[14] = target: Beta-lactamase (Acinetobacter baumannii) (UniProt Q8RLA6); conditions: NCTC 13301; remark: listed apart in the source
[15] = target: Beta-lactamase (Acinetobacter baumannii) (UniProt Q8RLA6); conditions: S-10; remark: listed apart in the source
[16] = target: Beta-lactamase (Acinetobacter baumannii) (UniProt Q8RLA6); conditions: S-8; remark: listed apart in the source
[17] = target: Beta-lactamase (Acinetobacter baumannii) (UniProt Q8RLA6); conditions: S-3
[18] = target: Beta-lactamase (Acinetobacter baumannii) (UniProt Q8RLA6); conditions: S-15; remark: listed apart in the source
[19] = target: Beta-lactamase (Acinetobacter baumannii) (UniProt Q8RLA6); conditions: NCTC 13305; remark: listed apart in the source
[20] = target: Beta-lactamase (Acinetobacter baumannii) (UniProt Q8RLA6); conditions: S-10; remark: listed apart in the source
[21] = target: Beta-lactamase (Acinetobacter baumannii) (UniProt Q8RLA6); conditions: NCTC 13304; remark: listed apart in the source
[22] = target: Beta-lactamase (Acinetobacter baumannii) (UniProt Q8RLA6); conditions: S-15; remark: listed apart in the source
[23] = target: Beta-lactamase (Acinetobacter baumannii) (UniProt Q8RLA6); experiment: Inhibition of beta-lactamase in extended-spectrum b-lactamase producing Acinetobacter baumannii S-3 assessed as potentiation of cefpirome-induced antibacterial activity by measuring cefpirome MIC at 4 to 8 ug/ml incubated for 16 to 20 hrs by CLSI method
[24] = target: Beta-lactamase (Acinetobacter baumannii) (UniProt Q8RLA6); conditions: NCTC 13304; remark: listed apart in the source
[25] = target: Beta-lactamase (Acinetobacter baumannii) (UniProt Q8RLA6); conditions: NCTC 13304; remark: listed apart in the source
[26] = target: Beta-lactamase (Acinetobacter baumannii) (UniProt Q8RLA6); experiment: Inhibition of beta-lactamase in extended-spectrum b-lactamase producing Acinetobacter baumannii NCTC 13301 assessed as potentiation of cefepime-induced antibacterial activity by measuring cefepime MIC at 4 to 8 ug/ml incubated for 16 to 20 hrs by CLSI method
[27] = target: Beta-lactamase (Acinetobacter baumannii) (UniProt Q8RLA6); conditions: S-8; remark: listed apart in the source
[28] = target: Beta-lactamase (Acinetobacter baumannii) (UniProt Q8RLA6); conditions: NCTC 13301; remark: listed apart in the source
[29] = target: Beta-lactamase (Acinetobacter baumannii) (UniProt Q8RLA6); experiment: Inhibition of beta-lactamase in extended-spectrum b-lactamase producing Acinetobacter baumannii S-4 assessed as potentiation of cefpirome-induced antibacterial activity by measuring cefpirome MIC at 4 to 8 ug/ml incubated for 16 to 20 hrs by CLSI method
[30] = target: Beta-lactamase (Acinetobacter baumannii) (UniProt Q8RLA6); conditions: NCTC 13304; remark: listed apart in the source
[31] = target: Beta-lactamase (Acinetobacter baumannii) (UniProt Q8RLA6); conditions: S-8; remark: listed apart in the source
[32] = target: Beta-lactamase (Acinetobacter baumannii) (UniProt Q8RLA6); conditions: NCTC 13305; remark: listed apart in the source
[33] = target: Beta-lactamase (Acinetobacter baumannii) (UniProt Q8RLA6); conditions: S-3; remark: listed apart in the source
[34] = target: Beta-lactamase (Acinetobacter baumannii) (UniProt Q8RLA6); conditions: S-8; remark: listed apart in the source
[35] = target: Beta-lactamase (Acinetobacter baumannii) (UniProt Q8RLA6); conditions: NCTC 13301; remark: listed apart in the source
[36] = target: Beta-lactamase (Acinetobacter baumannii) (UniProt Q8RLA6); conditions: NCTC 13304; remark: listed apart in the source
[37] = target: Beta-lactamase (Acinetobacter baumannii) (UniProt Q8RLA6); conditions: S-3; remark: listed apart in the source
[38] = target: Beta-lactamase (Acinetobacter baumannii) (UniProt Q8RLA6); conditions: S-4; remark: listed apart in the source
[39] = target: Beta-lactamase (Acinetobacter baumannii) (UniProt Q8RLA6); conditions: NCTC 13305; remark: listed apart in the source
[40] = target: Beta-lactamase (Acinetobacter baumannii) (UniProt Q8RLA6); conditions: S-3; remark: listed apart in the source
[41] = target: Beta-lactamase (Acinetobacter baumannii) (UniProt Q8RLA6); conditions: S-4; remark: listed apart in the source
[42] = target: Beta-lactamase (Acinetobacter baumannii) (UniProt Q8RLA6); conditions: S-3; remark: listed apart in the source
[43] = tested on: Acinetobacter baumannii; experiment: Antibacterial activity against extended-spectrum b-lactamase producing Acinetobacter baumannii S-10 incubated for 16 to 20 hrs by CLSI method; assay type: functional
[44] = target: Beta-lactamase (Acinetobacter baumannii) (UniProt Q8RLA6); conditions: NCTC 13301; remark: listed apart in the source
[45] = target: Beta-lactamase (Acinetobacter baumannii) (UniProt Q8RLA6); conditions: S-4; remark: listed apart in the source
[46] = target: Beta-lactamase (Acinetobacter baumannii) (UniProt Q8RLA6); conditions: S-4; remark: listed apart in the source

Beta-lactamase (Acinetobacter baumannii), sequence (Q8RLA6 as listed by the source): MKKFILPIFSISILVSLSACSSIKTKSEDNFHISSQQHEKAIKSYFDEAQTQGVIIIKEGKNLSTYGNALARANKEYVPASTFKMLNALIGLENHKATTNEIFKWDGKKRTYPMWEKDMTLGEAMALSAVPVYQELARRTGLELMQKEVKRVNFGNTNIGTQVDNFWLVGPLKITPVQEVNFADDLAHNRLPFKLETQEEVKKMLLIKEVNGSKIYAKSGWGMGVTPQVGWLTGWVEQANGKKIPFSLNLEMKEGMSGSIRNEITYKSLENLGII

With NC(=O)[C@@H]1CC[C@@H]2CN1C(=O)N2OS(=O)(=O)O the MIC [1] was 0.5 µg/mL (≈ 1.89 µM), the MIC [2] was 4 µg/mL (≈ 15.1 µM) and the MIC [3] was < 0.06 µg/mL. For the same compound, the MIC [4] was < 0.06 µg/mL, the MIC [5] was 0.12 µg/mL (≈ 0.452 µM) and the MIC [6] was < 0.06 µg/mL. For the same compound, the MIC [7] was < 0.06 µg/mL, the MIC [8] was 8 µg/mL (≈ 30.2 µM) and the MIC [9] was 0.5 µg/mL (≈ 1.89 µM). For the same compound, the MIC [10] was 8 µg/mL (≈ 30.2 µM), the MIC [11] was < 0.06 µg/mL and the MIC [12] was < 0.03 µg/mL. The MIC [13] was > 64 µg/mL, the MIC [14] was < 0.06 µg/mL and the MIC [15] was 8 µg/mL (≈ 30.2 µM). It also gave an MIC [16] of 0.5 µg/mL (≈ 1.89 µM), an MIC [17] of 0.5 µg/mL (≈ 1.89 µM) and an MIC [18] of 0.12 µg/mL (≈ 0.452 µM). For the same compound, the MIC [19] was < 0.06 µg/mL, the MIC [20] was < 0.03 µg/mL and the MIC [21] was < 0.06 µg/mL. The MIC [22] was 0.5 µg/mL (≈ 1.89 µM), the MIC [23] was 32 µg/mL and the MIC [24] was < 0.06 µg/mL. For the same compound, the MIC [25] was < 0.06 µg/mL, the MIC [26] was > 32 µg/mL and the MIC [27] was 8 µg/mL (≈ 30.2 µM). For the same compound, the MIC [28] was < 0.06 µg/mL, the MIC [29] was 32 µg/mL and the MIC [30] was < 0.06 µg/mL. For the same compound, the MIC [31] was 0.5 µg/mL (≈ 1.89 µM), the MIC [32] was < 0.06 µg/mL and the MIC [33] was 4 µg/mL (≈ 15.1 µM). The MIC [34] was 8 µg/mL (≈ 30.2 µM), the MIC [35] was < 0.06 µg/mL and the MIC [36] was < 0.06 µg/mL. The MIC [37] was 4 µg/mL (≈ 15.1 µM), the MIC [38] was 0.5 µg/mL (≈ 1.89 µM) and the MIC [39] was < 0.06 µg/mL. The MIC [40] was 1 µg/mL (≈ 3.77 µM), the MIC [41] was 4 µg/mL (≈ 15.1 µM) and the MIC [42] was 1 µg/mL (≈ 3.77 µM). The MIC [43] was > 64 µg/mL, the MIC [44] was < 0.06 µg/mL and the MIC [45] was 1 µg/mL (≈ 3.77 µM). It also gave an MIC [46] of 0.5 µg/mL (≈ 1.89 µM).
